The values that follow come from patent publication EP0630648A1, “Use of acyl L-carnitine gamma-hydroxybutyrate for the treatment of drug addiction” (Sigma-Tau Industrie Farmaceutiche Riunite S.p.A., priority 1993, dated 1994).

Marks after values point to notes of the source that are not given here.

Assay [1] has as its system male Wistar rats. The experiment in a line: Hot-plate test: onset of habituation to the analgesic action of morphine. The assay is classed as in vivo. Particulars: for mean latency: after 15 days of daily morphine, substance 100 mg/kg i.p., morphine 10 mg/kg i.p., plate 51°C. How it is done:
Morphine addiction was induced in the rats by daily injections for a period of 15 days.
Five different groups of animals also received saline solution, VCGB, GHB, LAC or VC (100 mg/kg i.p.), respectively.
On the technique in general: Hot-plate and tail-flick tests time the reaction to a heat stimulus.

Assay [2] deals with male Wistar rats. The assay is described as follows: Withdrawal syndrome due to naloxone administration in morphine-treated rats. The assay is classed as in vivo. The conditions noted are these: morphine for 10 days; for Weight loss: mean loss of body weight 1 hour after naloxone injection (1 mg/kg subcutaneous); for Latency of stereotype jumps: then naloxone 1 mg/kg subcutaneous, cut-off time 900 sec. Here is the method: After repeated treatment with morphine for a period of 10 days, the rats were all weighed and administered naloxone (1 mg/kg dissolved in saline solution) by subcutaneous injection. The resulting withdrawal syndrome was assessed by measuring the latency of onset of "stereotype jumps" from a circular platform measuring 35 cm in diameter and 70 cm in height. A cut-off time of 900 sec. was used. In 5 groups of animals, naloxone administration was combined with administration of saline, VCGB, GHB, LAC and VC, respectively.
The body weight of the animals was then measured again 1 hour after naloxone injection and the mean loss of body weight was calculated for each group of animals treated.

The subject of assay [3] is male Wistar rats. The experiment in a line: Heroin self-administration behaviour in rats. Particulars: 100 mg/kg daily intraperitoneal; for number of heroin self-administrations: in the space of 3 hours.

With `O=C(O)CCCO` [GHB, gamma-hydroxybutyric acid], the values for the mean latency in assay [1] (T 0), in assay [1] (T 30) and in assay [1] (T 240) were 5.5 s, 13.0* sec and 6.0 s, respectively. In assay [2], the Weight loss turned out to be 15.5 ± 0.6 g. Also, the “Latency of stereotype jumps” value in assay [2] was found to be 451 ± 63 s. The “number of heroin self-administrations” value stood at 7.5 ± 0.6 in assay [3] (3rd day), 8.0 ± 0.7 in assay [3] (4th day) and 9.0 ± 0.6 in assay [3] (5th day).
For the molecule `CC(=O)OC(CC(=O)[O-])C[N+](C)(C)C` [LAC, acetyl L-carnitine], the mean latency in assay [1] (T 0) was 6.0 s; in assay [1] (T 30), 10.0* sec; in assay [1] (T 240) it was 6.0 s. For the same molecule, the Weight loss in assay [2] stood at 18.6 ± 2.1 g. In addition, the “Latency of stereotype jumps” value in assay [2] is 465 ± 99 s. The figures for the “number of heroin self-administrations” value in assay [3] (3rd day), in assay [3] (4th day) and in assay [3] (5th day) were 7.0 ± 0.5, 9.2 ± 0.5 and 8.9 ± 0.8, respectively.
With `CC(C)CC(=O)O[C@H](CC(=O)[O-])C[N+](C)(C)C` [VC, isovaleryl L-carnitine], the figures for the mean latency in assay [1] (T 0), in assay [1] (T 30) and in assay [1] (T 240) were 6.0 s, 10.0* sec and 6.0 s, respectively. Moreover, in assay [2], the Weight loss came to 16.6 ± 2.1 g. Also, the “Latency of stereotype jumps” value in assay [2] worked out at 480 ± 99 s. For the same molecule, the figures for the “number of heroin self-administrations” value in assay [3] (3rd day), in assay [3] (4th day) and in assay [3] (5th day) were 7.2 ± 0.5, 9.5 ± 0.5 and 8.8 ± 0.5, respectively.
On to `CC(C)CC(=O)O[C@H](CC(=O)OCCCC(=O)[O-])C[N+](C)(C)C` [VCGB, isovaleryl L-carnitine gamma-hydroxybutyrate], for which the mean latency was 6.5 s in assay [1] (T 0), 14.0* sec in assay [1] (T 30) and 10.0* sec in assay [1] (T 240). In addition, in assay [1] (summary of the table, 100 mg/kg i.p.), the “effect on habituation to morphine-induced analgesia (in words)” value is listed as “reduce habituation to morphine-induced analgesia to an appreciable extent”. In assay [2], this molecule gave a Weight loss of 12.3 ± 0.6 g. Further, the “Latency of stereotype jumps” value in assay [2] was found to be 564 ± 69 s. In addition, the “number of heroin self-administrations” value is on record as 6.3 ± 0.5 in assay [3] (3rd day), 6.8 ± 0.4 in assay [3] (4th day) and 6.3 ± 0.5 in assay [3] (5th day). Besides, the “effect on number of heroin self-administrations (in words)” value in assay [3] (summary of the table) is reported as “very long-lasting action in reducing the number of self-administrations”.
